The results in this text go back to patent US11999746B2, “Compounds” (GlaxoSmithKline Intellectual Property Development Limited, priority 2014, dated 2024).

Where a name gives a salt, the structure may show the parent alone.

In experiment [1] the target is T1, recombinant human Lp-PLA2 (Homo sapiens, UniProt Q13093).
T1 sequence (Q13093 22-441): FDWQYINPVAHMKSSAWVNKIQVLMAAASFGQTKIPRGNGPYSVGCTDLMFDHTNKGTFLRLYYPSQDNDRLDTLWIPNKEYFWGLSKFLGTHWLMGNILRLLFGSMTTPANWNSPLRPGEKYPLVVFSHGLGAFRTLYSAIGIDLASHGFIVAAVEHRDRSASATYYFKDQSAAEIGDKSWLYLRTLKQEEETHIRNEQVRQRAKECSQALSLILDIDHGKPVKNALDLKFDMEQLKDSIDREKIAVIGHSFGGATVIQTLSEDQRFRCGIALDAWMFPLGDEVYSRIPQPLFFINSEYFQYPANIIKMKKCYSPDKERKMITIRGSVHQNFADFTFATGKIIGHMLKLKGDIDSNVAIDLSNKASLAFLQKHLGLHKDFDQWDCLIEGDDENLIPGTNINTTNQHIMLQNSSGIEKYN
The experiment can be described thus: (1b) hrThioPAF assay, recombinant human Lp-PLA2. The class given is biochemical. The following applies: Examples 266-412 were tested here, one experiment or average of multiple experiments, read-out: rhLp-PLA2 (pIC50) (converted). The gist of the method: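 Fluorogenic assay: 20 pM rhLp-PLA2 in 50 mM HEPES pH 7.4, 150 mM NaCl, 1 mM CHAPS with 1:3 serially diluted compounds; substrate mix of 40 μM 2-thio-PAF, 40 μM CPM, 400 μM NEM (pre-addition levels). 20 min at 25 °C in the dark; fluorescence ex 380/em 485 nm, pIC50 by curve fitting.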

The next experiment has as its target T2, Lp-PLA2 in human plasma (Homo sapiens, UniProt Q13093).
T2 construct: from tissue; host or cells: pooled human plasma
T2 sequence (Q13093 22-441): T1 sequence (Q13093 22-441)
Put plainly: (3b) Lp-PLA2 human plasma alternative Thio-PAF assay. The class given is biochemical. The following applies: (3b) alternative Thio-PAF assay, pooled human plasma; Examples of 266-412 were tested here; read-out: pIC50 in the Lp-PLA2 human plasma assay (converted). The gist of the method:
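Pooled human plasma was preincubated with compound for 15 min at RT. Substrate solution (2 mM 2-thio-PAF, 52 μM CPM, 2.5 mM NEM in 50 mM HEPES pH 7.4, 150 mM NaCl, 1 mM CHAPS; pre-addition concentrations) was added, and the reaction was quenched with 5% TFA after 3 min. Fluorescence was read at ex 380/em 485 nm and fitted to give pIC50.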

On to `O=c1nc(OCc2ccc(F)c(F)c2)cc2n1CC1COCCN21` (centres unmarked) [Example E336, 7-((3,4-Difluorobenzyl)oxy)-3,4,11,11a-tetrahydropyrimido[6′,1′:2,3]imidazo[5,1-c][1,4] oxazin-9(1H)-one], for which the IC50 in experiment [1] was not above 10000 nM; on Lp-PLA2 in human plasma it was not above 100 nM.
For `CN1CCN2c3cc(OCc4ccc(F)c(F)c4)nc(=O)n3CC2C1` (centres unmarked) [Example E320, 7-((3,4-Difluorobenzyl)oxy)-2-methyl-3,4,11,11a-tetrahydro-1H-pyrazino[1,2′:3,4]imidazo[1,2-c]pyrimidin-9(2H)-one], in that order: not above 10000 nM and not above 100 nM.
For `O=c1nc(OCc2cc(F)c(Oc3cncc(C(F)(F)F)c3)c(F)c2)cc2n1CC1CSCCN21` (centres unmarked) [Example E371, 7-((3,5-Difluoro-4-((5-(trifluoromethyl)pyridin-3-yl)oxy)benzyl)oxy)-3,4,11,11a-tetrahydropyrimido[6′,1′:2,3]imidazo[5,1-c][1,4]thiazin-9(1H)-one], in that order: not above 1 nM and not above 100 nM.
The matching figures for `O=C(C1CC1)N1CCN2c3cc(OCc4ccc(F)c(F)c4)nc(=O)n3CC2C1` (centres unmarked) [Example E330, 2-(Cyclopropanecarbonyl)-7-((3,4-difluorobenzyl)oxy)-3,4,11,11a-tetrahydro-1H-pyrazino[1′,2′:3,4]imidazo[1,2-c]pyrimidin-9(2H)-one]: not above 10000 nM and not above 100 nM.
As for `O=c1nc(OCc2cc(F)c(Oc3cncc(C(F)(F)F)c3)c(F)c2)cc2n1CC1C[S+]([O-])CCN21` (centres unmarked) [Example E372, 7-((3,5-Difluoro-4-((5-(trifluoromethyl)pyridin-3-yl)oxy)benzyl)oxy)-3,4,11,11a-tetrahydropyrimido[6′,1′:2,3]imidazo[5,1-c][1,4]thiazin-9(1H)-one 2-oxide], the figures for the IC50 (in experiment [1]; at Lp-PLA2 in human plasma) were not above 1 nM and not above 100 nM, respectively.
For `N[C@@H]1C[C@H]2Cn3c(cc(OCc4cc(F)c(Oc5ccnc(C(F)(F)F)c5)c(F)c4)nc3=O)N2C1` [Example E392, (7R,8aS)-7-Amino-3-((3,5-difluoro-4-((2-(trifluoromethyl)pyridin-4-yl)oxy)benzyl)oxy)-7,8,8a,9-tetrahydropyrrolo[1′,2′:3,4]imidazo[1,2-c]pyrimidin-1(6H)-one], in that order: not above 10000 nM and not above 100 nM.
Take `N#Cc1cc(COc2cc3n(c(=O)n2)CC2CN(CCC(=O)O)CCN32)ccc1F` (centres unmarked) [Example E325, 3-(7-((3-Cyano-4-fluorobenzyl)oxy)-9-oxo-3,4,11,11a-tetrahydro-1H-pyrazino[1,2′:3,4]imidazo[1,2-c]pyrimidin-2(9H)-yl)propanoic acid]: the IC50 in experiment [1] is not above 10000 nM; at Lp-PLA2 in human plasma, not above 100 nM.
The matching figures for `N#Cc1cc(COc2cc3n(c(=O)n2)CC2COCCN32)ccc1F` (centres unmarked) [Example E329, 2-Fluoro-5-(((9-oxo-1,3,4,9,11,11a-hexahydropyrimido[6′,1′:2,3]imidazo[5,1-c][1,4]oxazin-7-yl)oxy)methyl)benzonitrile]: not above 10000 nM and not above 100 nM.
As for `CC(C)S(=O)(=O)N1CCN2c3cc(OCc4ccc(F)c(C#N)c4)nc(=O)n3CC2C1` (centres unmarked) [Example E295, 2-Fluoro-5-(((2-(isopropylsulfonyl)-9-oxo-2,3,4,9,11,11a-hexahydro-1H-pyrazino[1′,2′:3,4]imidazo[1,2-c]pyrimidin-7-yl)oxy)methyl)benzonitrile 2,2,2-trifluoroacetate], the results for the IC50 (in experiment [1]; at Lp-PLA2 in human plasma) were not above 10000 nM and not above 100 nM, respectively.
For the compound `O=C1CN2c3cc(OCc4ccc(F)c(F)c4)nc(=O)n3CC2CN1CC(F)(F)F` (centres unmarked) [Example E358, 7-((3,4-Difluorobenzyl)oxy)-2-(2,2,2-trifluoroethyl)-11,11a-dihydro-1Hpyrazino[1′,2′:3,4] imidazo[1,2-c]pyrimidine-3,9(2H,4H)-dione], the IC50 in experiment [1] is not above 10000 nM; on Lp-PLA2 in human plasma, not above 100 nM.
Take `NC1(C(=O)N2CCN3c4cc(OCc5ccc(F)c(F)c5)nc(=O)n4CC3C2)CC1` (centres unmarked) [Example E333, 2-(1-Aminocyclopropanecarbonyl)-7-((3,4-difluorobenzyl)oxy)-3,4,11,11a-tetrahydro-1H-pyrazino[1′,2′:3,4]imidazo[1,2-c]pyrimidin-9(2H)-one hydrochloride]: the IC50 in experiment [1] was not above 10000 nM; at Lp-PLA2 in human plasma, not above 100 nM.
For `O=c1nc(OCc2cc(F)c(Oc3ccnc(C(F)(F)F)c3)c(F)c2)cc2n1CC1CS(=O)(=O)CCN21` (centres unmarked) [Example E370, 7-((3,5-Difluoro-4-((2-(trifluoromethyl)pyridin-4-yl)oxy)benzyl)oxy)-3,4,11,11a-tetrahydropyrimido[6′,1′:2,3]imidazo[5,1-c][1,4]thiazin-9(1H)-one-2,2-dioxide], in that order: not above 10000 nM and not above 100 nM.
As for `O=c1nc(OCc2ccc(F)c(F)c2)cc2n1CC1(COC1)N2` [Example E396, 7-((3,4-difluorobenzyl)oxy)-1H-spiro[imidazo[1,2-c]pyrimidine-2,3′-oxetan]-5(3H)-one], the IC50 in experiment [1] is not above 10000 nM; on Lp-PLA2 in human plasma it was not above 100 nM.
The matching figures for `O=C1CN2c3cc(OCc4ccc(F)c(F)c4)nc(=O)n3CC2CN1` (centres unmarked) [Example E356, 7-((3,4-difluorobenzyl)oxy)-11,11a-dihydro-1H-pyrazino[1′,2′:3,4]imidazo[1,2-c]pyrimidine-3,9(2H,4H)-dione]: not above 10000 nM and not above 100 nM.
The matching figures for `CC(C)C(=O)N1CCN2c3cc(OCc4ccc(F)c(F)c4)nc(=O)n3CC2C1` (centres unmarked) [Example E310, 7-((3,4-Difluorobenzyl)oxy)-2-isobutyryl-3,4,11,11a-tetrahydro-1Hpyrazino[1′,2′:3,4] imidazo[1,2-c]pyrimidin-9(2H)-one]: not above 100 nM and not above 100 nM.
Turning to `N#Cc1cc(COc2cc3n(c(=O)n2)CC2CNCCN32)ccc1F` (centres unmarked) [Example E266, 2-Fluoro-5-(((9-oxo-2,3,4,9,11,11a-hexahydro-1H-pyrazino[1′,2′:3,4]imidazo[1,2-c]pyrimidin-7-yl)oxy)methyl)benzonitrile], the IC50 (in experiment [1]; at Lp-PLA2 in human plasma) was not above 100 nM throughout.
Regarding `O=c1nc(OCc2ccc(F)c(F)c2)cc2n1CC1(CCNCC1)N2` [Example 406, 7-((3,4-Difluorobenzyl)oxy)-1H-spiro[imidazo[1,2-c]pyrimidine-2,4′-piperidin]-5(3H)-one], the IC50 in experiment [1] is not above 10000 nM; on Lp-PLA2 in human plasma it was not above 100 nM.
Turning to `O=c1nc(OCc2ccc(Oc3ccnc(C(F)(F)F)c3)c(F)c2)cc2n1CC1CNCCN21` (centres unmarked) [Example E267, 7-((3-Fluoro-4-((2-(trifluoromethyl)pyridin-4-yl)oxy)benzyl)oxy)-3,4,11,11a-tetrahydro-1H-pyrazino[1′,2′:3,4] imidazo [1,2-c]pyrimidin-9(2H)-one], the IC50 (in experiment [1]; at Lp-PLA2 in human plasma) was not above 100 nM each time.
As for `CCCC(=O)N1CCN2c3cc(OCc4ccc(F)c(C#N)c4)nc(=O)n3CC2C1` (centres unmarked) [Example E291, 5-(((2-Butyryl-9-oxo-2,3,4,9,11,11a-hexahydro-1H-pyrazino[1′,2′:3,4]imidazo[1,2-c]pyrimidin-7-yl)oxy)methyl)-2-fluorobenzonitrile 2,2,2-trifluoroacetate], the IC50 in experiment [1] is not above 10000 nM; on Lp-PLA2 in human plasma, not above 100 nM.
